Earlier results, collected in patent publication US9308243B2, “Cellular enhancements in biological systems through the use of li-pofullerene and peptide group combinations” (LivePet, LLC, priority 2014, dated 2016).

Tested on: male flies
Settings: tiny amount added to food supply

NCCC(=O)N[C@@H](Cc1c[nH]cn1)C(=O)O [carnosine, L-Carnosine]
increase in the average life span: 20%
